Test results taken from patent publication US20070213339A1 (Bayer Pharmaceuticals Corporation, priority 2004, published 2007).

Test system: Colo205 human colon carcinoma cell line
Test: In vitro tumor cell proliferation assay (MTS, CellTiter 96 Aqueous One Solution)
Assay type: cell-based
Settings: COLO 205, Colo205 cells, 72 hours compound exposure, MTS absorbance at 490 nm, read-out: IC50 (concentration of test compound required to inhibit proliferation of 50% of the cells)
Procedure: In Vitro Tumor Cell Proliferation Assay
The adherent H460 human non-small cell lung carcinoma and Colo205 human colon carcinoma cell lines were purchased from the American Type and Culture Collection (ATCC, Manassas, Va.) and maintained in RPMI-1640 growth media supplemented with 10% heat inactivated fetal bovine serum (Gibco, Invitrogen Corp. Grand Island, N.Y.). At 37° C. in a humidified atmosphere of 5% CO2.
The CellTiter 960 Aqueous One Solution kit, MTS, (Promega, Madison, Wis.) was used to measure proliferation of tumor cell lines in vitro. This method monitors the bioreduction of a tetrazolium dye as a measure of cell viability. On Day 0, exponentially growing cells were trypsinized, resuspended in RPMI-1640 growth media supplemented with 10% FCS, 100 u/ml of penicillin G and 100 ug/ml of streptomycin sulfate, and seeded at 2000 cells per well into 96 well microtiter plates. Cells were incubated overnight in a humidified atmosphere of 5% CO2 at 37° C. On Day 1, serial dilutions of compounds were prepared at 2× the finial assay concentration. One hundred microliters of 2× solution was added to test wells in duplicate and control wells received no test compound. The final drug concentration ranged from 0 to 10-20 um in a 5 point dose-response curve. Cells were incubated in the presence of test compounds in a humidified atmosphere of 5% CO2 at 37° C. for 72 hours. After 72 hours of compound exposure, 40 ul of Promega CellTiter 960 Aqueous One Solution was added to each well and absorbance at 490 n-M was measured using a multi-well plate reader. Percent inhibition of proliferation was calculated using the following formula: 100×(1−Absorbancetreated−Background/(Absorbancecontrol−Background)
Absorbancetreated=absorbance at 490 nm in test wells, cells with test compound
Absorbancecontrol=absorbance at 490 nm in control wells, cells with no test compound
Background=absorbance 490 nm in wells containing media and no cells
The concentration of test compound required to inhibit proliferation of 50% of the cells (IC50) was determined by linear regression analysis.
Representative compounds of the invention were tested in the above-described Colo205 human colon carcinoma cell line in vitro assay and found to inhibit human colon carcinoma cell proliferation, and are summarized as follows: […]

Row | IC50 [nM] | Structure (SMILES)
1 | < 500 | Cc1cccc(N2CCN(c3c(F)cc4c(=O)c(C(=O)O)cn(-c5ccc(CN6CCCC6)cc5)c4c3OC(F)(F)F)CC2)n1 [Example 120, 6-fluoro-7-[4-(6-methylpyridin-2-yl)piperazin-1-yl]-4-oxo-1-[4-(pyrrolidin-1-ylmethyl)phenyl]-8-(trifluoromethoxy)-1,4-dihydroquinoline-3-carboxylic acid]
2 | 500 to 2000 | CCN(CC)Cc1ccc(-n2cc(C(=O)O)c(=O)c3cc(F)c(N4CCN(c5ccccc5Cl)CC4)c(OC)c32)cc1 [Example 109, 7-[4-(2-chlorophenyl)piperazin-1-yl]-1-{4-[(diethylamino)methyl]phenyl}-6-fluoro-8-methoxy-4-oxo-1,4-dihydroquinoline-3-carboxylic acid]
3 | < 500 | CCN(CC)Cc1ccc(-n2cc(C(=O)O)c(=O)c3cc(F)c(N4CCN(c5ccc(F)cc5)CC4)c(OC(F)(F)Cl)c32)cc1 [Example 163, 8-[chloro(difluoro)methoxy]-1-{4-[(diethylamino)methyl]phenyl}-6-fluoro-7-[4-(4-fluorophenyl)piperazin-1-yl]-4-oxo-1,4-dihydroquinoline-3-carboxylic acid]
4 | < 500 | CN(C)Cc1ccc(-n2cc(C(=O)O)c(=O)c3cc(F)c(N4CCN(c5ccccn5)CC4)c(OC(F)(F)F)c32)cc1 [Example 126, 1-{4-[(dimethylamino)methyl]phenyl}-6-fluoro-4-oxo-7-(4-pyridin-2-ylpiperazin-1-yl)-8-(trifluoromethoxy)-1,4-dihydroquinoline-3-carboxylic acid]
5 | < 500 | CN(C)Cc1ccc(-n2cc(C(=O)O)c(=O)c3cc(F)c(N4CCN(c5ncccn5)CC4)c(OC(F)(F)F)c32)cc1 [Example 128, 1-{4-[(dimethylamino)methyl]phenyl}-6-fluoro-4-oxo-7-(4-pyrimidin-2-ylpiperazin-1-yl)-8-(trifluoromethoxy)-1,4-dihydroquinoline-3-carboxylic acid]
6 | < 500 | COc1cc(CNC2CCC2)ccc1-n1cc(C(=O)O)c(=O)c2cc(F)c(N3CCN(c4ccc(F)cc4)CC3)c(Cl)c21 [Example 178, 8-chloro-1-(4-cyclobutylaminomethyl-2-methoxyphenyl)-6-fluoro-7-[4-(4-fluorophenyl)-piperazine-1-yl]-4-oxo-1,4-dihydroquinoline-3-carboxylic acid]
7 | 2000 to 20000 | O=C(O)c1cn(-c2cccc(CN3CCCCC3)c2)c2c(Cl)c(N3CCN(c4ncccn4)CC3)c(F)cc2c1=O [Example 66, 8-chloro-6-fluoro-4-oxo-1-[3-(piperidin-1-yl-methyl)phenyl]-7-(4-pyrimidin-2-ylpiperazin-1-yl)-1,4-dihydroquinoline-3-carboxylic acid]
8 | < 500 | CCN(CC)Cc1ccc(-n2cc(C(=O)O)c(=O)c3cc(F)c(N4CCN(c5ccccc5F)CC4)c(OC(F)(F)F)c32)cc1 [Example 135, 1-{4-[(diethylamino)methyl]phenyl}-6-fluoro-7-[4-(2-fluorophenyl)piperazin-1-yl]-4-oxo-8-(trifluoromethoxy)-1,4-dihydroquinoline-3-carboxylic acid]
9 | < 500 | COc1c(N2CCN(c3ccc(F)cc3)CC2)c(F)cc2c(=O)c(C(=O)O)cn(-c3ccc(CN(C)C)cc3)c12 [Example 93, 1-{4-[(dimethylamino)methyl]phenyl}-6-fluoro-7-[4-(4-fluorophenyl)piperazin-1-yl]-8-methoxy-4-oxo-1,4-dihydroquinoline-3-carboxylic acid]
10 | < 500 | COc1c(N2CCN(c3ncccn3)CC2)c(F)cc2c(=O)c(C(=O)O)cn(-c3ccc(CN4CCCC4)cc3)c12 [Example 73, 6-fluoro-8-methoxy-4-oxo-7-(4-pyrimidin-2-ylpiperazin-1-yl)-1-[4-(pyrrolidin-1-ylmethyl)phenyl]-1,4-dihydroquinoline-3-carboxylic acid]
11 | 500 to 2000 | CN(C)CCc1ccc(-n2cc(C(=O)O)c(=O)c3cc(F)c(N4CCN(c5ccc(Cl)cc5)CC4)c(Cl)c32)cc1 [Example 70, 8-chloro-7-[4-(4-chlorophenyl)piperazin-1-yl]-1-{4-[2-(dimethylamino)ethyl]phenyl}-6-fluoro-4-oxo-1,4-dihydroquinoline-3-carboxylic acid]
12 | < 500 | CCN(CC)Cc1ccc(-n2cc(C(=O)O)c(=O)c3cc(F)c(N4CCN(c5cccc(Cl)c5)CC4)c(OC)c32)cc1 [Example 115, 7-[4-(3-chlorophenyl)piperazin-1-yl]-1-{4-[(diethylamino)methyl]phenyl}-6-fluoro-8-methoxy-4-oxo-1,4-dihydroquinoline-3-carboxylic acid]
13 | < 500 | CCN(CC)Cc1ccc(-n2cc(C(=O)O)c(=O)c3cc(F)c(N4CCN(c5ccc(F)cc5)CC4)c(OC)c32)cc1 [Example 105, 1-{4-[(diethylamino)methyl]phenyl}-6-fluoro-7-[4-(4-fluorophenyl)piperazin-1-yl]-8-methoxy-4-oxo-1,4-dihydroquinoline-3-carboxylic acid]
14 | < 500 | CN(Cc1ccc(-n2cc(C(=O)O)c(=O)c3cc(F)c(N4CCN(c5ncccn5)CC4)c(Cl)c32)cc1)C1CCCCC1 [Example 62, 8-chloro-1-(4-{[cyclohexyl(methyl)amino]-methyl}phenyl)-6-fluoro-4-oxo-7-(4-pyrimidin-2-ylpiperazin-1-yl)-1,4-dihydroquinoline-3-carboxylic acid]

The remaining lines, values behind:

Row | Structure (SMILES) | IC50 [nM]
15 | O=C(O)c1cn(-c2ccc(CN3CC[C@H](O)C3)cc2)c2c(Cl)c(N3CCN(c4ccc(F)cc4)CC3)c(F)cc2c1=O [Example 29, 8-chloro-6-fluoro-7-[4-(4-fluorophenyl)-piperazin-1-yl]-1-(4-{[(3S)-3-hydroxypyrrolidin-1-yl]methyl}phenyl)-4-oxo-1,4-dihydroquinoline-3-carboxylic acid] | < 500
16 | CCOc1ccc(N2CCN(c3c(F)cc4c(=O)c(C(=O)O)cn(-c5ccc(CN6CCCC6)cc5)c4c3Cl)CC2)cc1 [Example 12, 8-chloro-7-[4-(4-ethoxyphenyl)piperazin-1-yl]-6-fluoro-4-oxo-1-[4-(pyrrolidin-1-ylmethyl)phenyl]-1,4-dihydroquinoline-3-carboxylic acid] | 2000 to 20000
17 | COC[C@@H]1CCCN1Cc1ccc(-n2cc(C(=O)O)c(=O)c3cc(F)c(N4CCN(c5ccc(F)cc5)CC4)c(Cl)c32)cc1 [Example 25, 8-chloro-6-fluoro-7-[4-(4-fluorophenyl)-piperazin-1-yl]-1-(4-{[(2S)-2-(methoxymethyl)pyrrolidin-1-yl]methyl}phenyl)-4-oxo-1,4-dihydroquinoline-3-carboxylic acid] | < 500
18 | O=C(O)c1cn(-c2ccc(CNC3CCCC3)cc2)c2c(Cl)c(N3CCN(c4ccccn4)CC3)c(F)cc2c1=O [Example 56, 8-chloro-1-{4-[(cyclopentylamino)-methyl]phenyl}-6-fluoro-4-oxo-7-(4-pyridin-2-ylpiperazin-1-yl)-1,4-dihydroquinoline-3-carboxylic acid] | < 500
19 | O=C(O)c1cn(-c2ccc(CN3CCCC3)cc2F)c2c(Cl)c(N3CCN(c4ncccn4)CC3)c(F)cc2c1=O [Example 40, 8-chloro-6-fluoro-1-[2-fluoro-4-(pyrrolidin-1-ylmethyl)phenyl]-4-oxo-7-(4-pyrimidin-2-ylpiperazin-1-yl)-1,4-dihydroquinoline-3-carboxylic acid] | < 500
20 | CC1C=CC(C)N1Cc1ccc(-n2cc(C(=O)O)c(=O)c3cc(F)c(N4CCN(c5ncccn5)CC4)c(Cl)c32)cc1 (centres unmarked) [Example 20, 8-chloro-1-{4-[(2,5-dimethyl-2,5-dihydro-1H-pyrrol-1-yl)methyl]phenyl}-6-fluoro-4-oxo-7-(4-pyrimidin-2-ylpiperazin-1-yl)-1,4-dihydroquinoline-3-carboxylic acid] | 2000 to 20000
21 | N#Cc1cccnc1N1CCN(c2c(F)cc3c(=O)c(C(=O)O)cn(-c4ccc(CN5CCCC5)cc4F)c3c2Cl)CC1 [Example 45, 8-chloro-7-[4-(3-cyanopyridin-2-yl)piperazin-1-yl]-6-fluoro-1-[2-fluoro-4-(pyrrolidin-1-ylmethyl)phenyl]-4-oxo-1,4-dihydroquinoline-3-carboxylic acid] | < 500
22 | N#Cc1cccnc1N1CCN(c2c(F)cc3c(=O)c(C(=O)O)cn(-c4ccc(CN5CCCC5)cc4)c3c2Cl)CC1 [Example 7, 8-chloro-7-[4-(3-cyanopyridin-2-yl)piperazin-1-yl]-6-fluoro-4-oxo-1-[4-(pyrrolidin-1-ylmethyl)phenyl]-1,4-dihydroquinoline-3-carboxylic acid] | < 500
23 | N#Cc1ccccc1N1CCN(c2c(F)cc3c(=O)c(C(=O)O)cn(-c4ccc(CN5CCCC5)cc4F)c3c2Cl)CC1 [Example 39, 8-chloro-7-[4-(2-cyanophenyl)piperazin-1-yl]-6-fluoro-1-[2-fluoro-4-(pyrrolidin-1-ylmethyl)phenyl]-4-oxo-1,4-dihydroquinoline-3-carboxylic acid] | < 500
